Source: PubChem BioAssay (NCI)
“And” between values parts separate entries of the source, which are not always exact repeats. Equal entries are not always repeated.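 Interpolation was linear, between the two tested concentrations surrounding the appropriate level; five concentrations were tested over 48 hours in 96-well plates. GI50 marks 50% less growth. At the TGI there is no net growth.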

Experiments:
Assay in all cases: NCI tumour cell line growth inhibition, 48 h
NCI-H23 lung = test system: NCI-H23 lung
SK-MEL-5 melanoma = test system: SK-MEL-5 melanoma
CCRF-CEM leukemia = test system: CCRF-CEM leukemia
UO-31 renal = test system: UO-31 renal
KM20L2 colon = test system: KM20L2 colon
XF 498 CNS = test system: XF 498 CNS
HCT-15 colon = test system: HCT-15 colon
NCI-H226 lung = test system: NCI-H226 lung
RXF-631 renal = test system: RXF-631 renal
TK-10 renal = test system: TK-10 renal
OVCAR-4 ovarian = test system: OVCAR-4 ovarian
OVCAR-3 ovarian = test system: OVCAR-3 ovarian
SNB-78 CNS = test system: SNB-78 CNS
DMS 114 small cell lung = test system: DMS 114 small cell lung
NCI-H460 lung = test system: NCI-H460 lung
HCC-2998 colon = test system: HCC-2998 colon
K-562 leukemia = test system: K-562 leukemia
LXFL 529 NSCLC = test system: LXFL 529 NSCLC
NCI-H522 lung = test system: NCI-H522 lung
KM12 colon = test system: KM12 colon
DMS 273 small cell lung = test system: DMS 273 small cell lung
LOX IMVI melanoma = test system: LOX IMVI melanoma
SK-MEL-28 melanoma = test system: SK-MEL-28 melanoma
HT29 colon = test system: HT29 colon
COLO 205 colon = test system: COLO 205 colon
IGROV1 ovarian = test system: IGROV1 ovarian
SN12C renal = test system: SN12C renal
RPMI-8226 leukemia = test system: RPMI-8226 leukemia
SNB-19 CNS = test system: SNB-19 CNS
M19-MEL melanoma = test system: M19-MEL melanoma
SR leukemia = test system: SR leukemia
A549 NSCLC = test system: A549 NSCLC
EKVX NSCLC = test system: EKVX NSCLC
HCT-116 colon = test system: HCT-116 colon
U251 CNS = test system: U251 CNS
SF-295 CNS = test system: SF-295 CNS
786-0 renal = test system: 786-0 renal
SNB-75 CNS = test system: SNB-75 CNS
HL-60(TB) leukemia = test system: HL-60(TB) leukemia
HOP-62 NSCLC = test system: HOP-62 NSCLC
ACHN renal = test system: ACHN renal
MALME-3M melanoma = test system: MALME-3M melanoma
SK-MEL-2 melanoma = test system: SK-MEL-2 melanoma
A498 renal = test system: A498 renal
OVCAR-5 ovarian = test system: OVCAR-5 ovarian
CAKI-1 renal = test system: CAKI-1 renal
SK-OV-3 ovarian = test system: SK-OV-3 ovarian
UACC-62 melanoma = test system: UACC-62 melanoma
DLD-1 colon = test system: DLD-1 colon
OVCAR-8 ovarian = test system: OVCAR-8 ovarian
RXF 393 renal = test system: RXF 393 renal
SW-620 colon = test system: SW-620 colon
M14 melanoma = test system: M14 melanoma
MOLT-4 leukemia = test system: MOLT-4 leukemia
SF-539 CNS = test system: SF-539 CNS
UACC-257 melanoma = test system: UACC-257 melanoma
HOP-92 NSCLC = test system: HOP-92 NSCLC
HOP-18 NSCLC = test system: HOP-18 NSCLC
MCF7 breast = test system: MCF7 breast
DU-145 prostate = test system: DU-145 prostate
P388/ADR leukemia = test system: P388/ADR leukemia
P388 leukemia = test system: P388 leukemia
SN12K1 renal = test system: SN12K1 renal
BT-549 breast = test system: BT-549 breast

`CC(C)=CC1(C)/C(=N\O)C(C)(CC(C)C)C(=O)N1O` (stereo not given) gave a TGI (NCI-H23 lung) of over 100 µM, a TGI (SK-MEL-5 melanoma) of over 100 µM and a TGI (CCRF-CEM leukemia) of over 100 µM. It also gave a TGI (UO-31 renal) of over 100 µM, a TGI (KM20L2 colon) of over 100 µM and a TGI (XF 498 CNS) of over 100 µM. The TGI (HCT-15 colon) was over 100 µM, the TGI (NCI-H226 lung) was over 100 µM and the TGI (RXF-631 renal) was over 100 µM. For the same molecule, the TGI (TK-10 renal) was over 100 µM, the TGI (OVCAR-4 ovarian) was over 100 µM and the TGI (OVCAR-3 ovarian) was over 100 µM. The TGI (SNB-78 CNS) was over 100 µM, the TGI (DMS 114 small cell lung) was over 100 µM and the TGI (NCI-H460 lung) was over 100 µM. It also gave a TGI (HCC-2998 colon) of over 100 µM, a TGI (K-562 leukemia) of over 100 µM and a TGI (LXFL 529 NSCLC) of over 100 µM. It also gave a TGI (NCI-H522 lung) of over 100 µM, a TGI (KM12 colon) of over 100 µM and a TGI (DMS 273 small cell lung) of over 100 µM. The TGI (LOX IMVI melanoma) was over 100 µM, the TGI (SK-MEL-28 melanoma) was over 100 µM and the TGI (HT29 colon) was over 100 µM. The TGI (COLO 205 colon) was over 100 µM, the TGI (IGROV1 ovarian) was over 100 µM and the TGI (SN12C renal) was over 100 µM. The TGI (RPMI-8226 leukemia) was over 100 µM, the TGI (SNB-19 CNS) was over 100 µM and the TGI (M19-MEL melanoma) was over 100 µM. For the same molecule, the TGI (SR leukemia) was over 100 µM, the TGI (A549 NSCLC) was over 100 µM and the TGI (EKVX NSCLC) was over 100 µM. The TGI (HCT-116 colon) was over 100 µM, the TGI (U251 CNS) was over 100 µM and the TGI (SF-295 CNS) was over 100 µM. The TGI (786-0 renal) was over 100 µM, the TGI (SNB-75 CNS) was over 100 µM and the TGI (HL-60(TB) leukemia) was over 100 µM. It also gave a TGI (HOP-62 NSCLC) of over 100 µM, a TGI (ACHN renal) of over 100 µM and a TGI (MALME-3M melanoma) of over 100 µM. It also gave a TGI (SK-MEL-2 melanoma) of over 100 µM, a TGI (A498 renal) of over 100 µM and a TGI (OVCAR-5 ovarian) of over 100 µM. The TGI (CAKI-1 renal) was over 100 µM, the TGI (SK-OV-3 ovarian) was over 100 µM and the TGI (UACC-62 melanoma) was over 100 µM. The TGI (DLD-1 colon) was over 100 µM, the TGI (OVCAR-8 ovarian) was over 100 µM and the TGI (RXF 393 renal) was over 100 µM. It also gave a TGI (SW-620 colon) of over 100 µM, a TGI (M14 melanoma) of over 100 µM and a TGI (MOLT-4 leukemia) of over 100 µM. The TGI (SF-539 CNS) was over 100 µM, the TGI (UACC-257 melanoma) was over 100 µM and the TGI (HOP-92 NSCLC) was over 100 µM.
`COc1ccc(C2C(C(=O)O)=C(CO)Oc3cc4c(cc32)OCO4)c(OC)c1` (stereo not given) gave a TGI (NCI-H23 lung) of over 100 µM, a TGI (SK-MEL-5 melanoma) of over 100 µM and a TGI (CCRF-CEM leukemia) of over 100 µM. It also gave a TGI (UO-31 renal) of over 100 µM, a TGI (KM20L2 colon) of over 100 µM and a TGI (XF 498 CNS) of over 100 µM. The TGI (HCT-15 colon) was over 100 µM, the TGI (RXF-631 renal) was over 100 µM and the TGI (TK-10 renal) was over 100 µM. It also gave a TGI (OVCAR-4 ovarian) of over 100 µM, a TGI (OVCAR-3 ovarian) of over 100 µM and a TGI (SNB-78 CNS) of over 100 µM. For the same molecule, the TGI (DMS 114 small cell lung) was over 100 µM, the TGI (NCI-H460 lung) was over 100 µM and the TGI (K-562 leukemia) was over 100 µM. For the same molecule, the TGI (DMS 273 small cell lung) was over 100 µM, the TGI (LOX IMVI melanoma) was over 100 µM and the TGI (SK-MEL-28 melanoma) was over 100 µM. It also gave a TGI (HT29 colon) of over 100 µM, a TGI (COLO 205 colon) of over 100 µM and a TGI (IGROV1 ovarian) of over 100 µM. The TGI (SN12C renal) was over 100 µM, the TGI (RPMI-8226 leukemia) was over 100 µM and the TGI (SNB-19 CNS) was over 100 µM. It also gave a TGI (M19-MEL melanoma) of over 100 µM, a TGI (A549 NSCLC) of over 100 µM and a TGI (EKVX NSCLC) of over 100 µM. The TGI (HCT-116 colon) was over 100 µM, the TGI (U251 CNS) was over 100 µM and the TGI (SF-295 CNS) was over 100 µM. The TGI (786-0 renal) was over 100 µM, the TGI (SNB-75 CNS) was over 100 µM and the TGI (HL-60(TB) leukemia) was over 100 µM. The TGI (HOP-62 NSCLC) was 72 µM, the TGI (ACHN renal) was over 100 µM and the TGI (MALME-3M melanoma) was over 100 µM. For the same molecule, the TGI (HOP-18 NSCLC) was over 100 µM, the TGI (CAKI-1 renal) was over 100 µM and the TGI (SK-OV-3 ovarian) was over 100 µM. It also gave a TGI (UACC-62 melanoma) of over 100 µM, a TGI (DLD-1 colon) of over 100 µM and a TGI (OVCAR-8 ovarian) of over 100 µM. The TGI (RXF 393 renal) was over 100 µM, the TGI (SW-620 colon) was over 100 µM and the TGI (M14 melanoma) was over 100 µM. It also gave a TGI (MOLT-4 leukemia) of over 100 µM, a TGI (SF-539 CNS) of over 100 µM and a TGI (UACC-257 melanoma) of over 100 µM. The TGI (HOP-92 NSCLC) was over 100 µM.
`O=c1[nH]c(=O)n(C2CC(O)C(CO)O2)cc1F` (stereo not given) was tested, and the TGI (NCI-H23 lung) was > 100 µM and 239 µM, the TGI (UO-31 renal) was > 100 µM and 130 µM and the TGI (TK-10 renal) was > 100 µM and 1650 µM and > 2500 µM. The TGI (MCF7 breast) was > 100 µM and 1940 µM and > 2500 µM, the TGI (DMS 114 small cell lung) was 808 µM and the TGI (DU-145 prostate) was > 100 µM and > 1570 µM and 1820 µM. The GI50 (NCI-H460 lung) was over 65.3 µM, the TGI (NCI-H460 lung) was > 100 µM and 526 µM and the GI50 (HCC-2998 colon) was 33.6 µM. For the same molecule, the TGI (K-562 leukemia) was > 100 µM and 1080 µM, the TGI (DMS 273 small cell lung) was 415 µM and the TGI (SK-MEL-28 melanoma) was > 100 µM and 1730 µM and > 2500 µM. For the same molecule, the TGI (HT29 colon) was > 100 µM and 2400 µM and > 2500 µM, the TGI (SNB-19 CNS) was > 100 µM and 1750 µM and > 2500 µM and the TGI (P388/ADR leukemia) was 74.9 µM. For the same molecule, the TGI (SR leukemia) was > 100 µM and 750 µM, the TGI (A549 NSCLC) was > 100 µM and 1910 µM and > 2500 µM and the TGI (P388 leukemia) was 179 µM. For the same molecule, the TGI (786-0 renal) was > 100 µM and 1790 µM and > 2500 µM, the GI50 (ACHN renal) was over 92.6 µM and the TGI (ACHN renal) was > 100 µM and 1670 µM. The TGI (SN12K1 renal) was 1250 µM, the TGI (A498 renal) was > 100 µM and 84.7 µM and the TGI (OVCAR-5 ovarian) was > 100 µM and 2330 µM and > 2500 µM. The TGI (CAKI-1 renal) was > 100 µM and 1100 µM and > 2500 µM, the TGI (BT-549 breast) was > 100 µM and 1030 µM and > 869 µM and the TGI (OVCAR-8 ovarian) was > 100 µM and 2320 µM and > 2500 µM. For the same molecule, the TGI (MOLT-4 leukemia) was > 100 µM and 1930 µM and > 2500 µM and the GI50 (SF-539 CNS) was over 79.3 µM.
